# Experimental data from patent US20090264384A1, “INDOLE, BENZIMIDAZOLE, AND BENZOLACTAM BORONIC ACID COMPOUNDS, ANALOGS THEREOF AND METHODS OF USE THEREOF” (Nuada, Inc., priority 2004, published 2009).
# Key:
# [1] = target: T1, LTD4(h) (Homo sapiens, UniProt Q9Y271); experiment: LTD4(h) binding assay; settings: read-out: % Inhibition of Control Specific Binding
# T1 construct: LTD4(h); U-937 cells; LTD4; Frey et al. (1993); endogenous in cells; host or cells: U-937 cells
# [2] = target: T2, A2A(h) (Homo sapiens, UniProt P29274); experiment: A2A(h) binding assay; settings: 1.0E−05 M
# T2 construct: expressed in transfected cells; host or cells: HEK-293 cells
# [3] = target: T3, Guanylyl cyclase (basal) (Bos taurus, UniProt P16068+P19687); experiment: Guanylyl cyclase (basal) enzyme assay; assay type: biochemical, bovine; settings: 1.0E−05 M
# T3 construct: bovine lung; from tissue; host or cells: bovine lung
# [4] = target: T4, CRF1 (Rattus norvegicus, UniProt P35353); experiment: CRF1 binding assay; settings: read-out: % Inhibition of Control Specific Binding
# T4 construct: from tissue; host or cells: rat pituitary gland
# [5] = target: T5, D1(h) (Homo sapiens, UniProt P21728); experiment: D1(h) binding assay; settings: read-out: % Inhibition of Control Specific Binding
# T5 construct: expressed in transfected cells; host or cells: CHO cells
# [6] = test system: Na^+ channel (site 2); assay type: binding, rat; settings: 1.0E−05 M
# [7] = target: T6, H1(h) (Homo sapiens, UniProt P35367); experiment: biochemical; settings: 1.0E−05 M; read-out: % Inhibition of Control Specific Binding
# T6 construct: expressed in transfected cells; host or cells: HEK-293 cells
# [8] = test system: P2X; experiment: P2X binding assay; set-up: species or system rat; settings: 1.0E−05 M
# [9] = target: T7, Androgen(h) (AR) (Homo sapiens, UniProt P10275, T878A); experiment: Androgen(h) (AR) binding assay; settings: 1.0E−05 M; read-out: % Inhibition of Control Specific Binding
# T7 construct: LNCaP cells; endogenous in cells; host or cells: LNCaP cells (cytosol)
# [10] = test system: Progesterone(h) (PR); experiment: Progesterone(h) (PR) binding assay; set-up: species or system human; settings: 1.0E−05 M
# [11] = target: T8, Phenylethanolamine-N-methyl transferase (Bos taurus, UniProt P10938); experiment: Phenylethanolamine-N-methyl transferase enzyme assay; assay type: biochemical, bovine; settings: 1.0E−05 M
# T8 construct: bovine adrenal; from tissue; host or cells: bovine adrenal medulla
# [12] = target: T9, ATPase (Na^+/K^+) (Canis lupus familiaris, UniProt P50997); experiment: ATPase (Na^+/K^+) enzyme assay; assay type: biochemical, dog; settings: 1.0E−05 M
# T9 construct: dog kidney; from tissue; host or cells: dog kidney
# [13] = test system: α1 (non-selective); experiment: α1 (non-selective) binding assay; set-up: species or system rat; settings: 1.0E−05 M
# [14] = target: T10, A1(h) (Homo sapiens, UniProt P30542); experiment: A1(h) binding assay; settings: 1.0E−05 M; read-out: % Inhibition of Control Specific Binding
# T10 construct: expressed in transfected cells; host or cells: CHO cells
# [15] = target: T11, D3(h) (Homo sapiens, UniProt P35462); experiment: D3(h) binding assay; settings: 1.0E−05 M; read-out: % Inhibition of Control Specific Binding
# T11 construct: expressed in transfected cells; host or cells: CHO cells
# [16] = target: T12, MC4(h) (Homo sapiens, UniProt P32245); experiment: MC4(h) binding assay; settings: 1.0E−05 M; read-out: % Inhibition of Control Specific Binding
# T12 construct: expressed in transfected cells; host or cells: HEK-293 cells
# [17] = target: T13, K^+ATP channel (Rattus norvegicus, UniProt Q09429); experiment: K^+ATP channel binding assay; settings: 1.0E−05 M; read-out: % Inhibition of Control Specific Binding
# T13 construct: rat cerebral; from tissue; host or cells: rat cerebral cortex
# [18] = target: T14, D2S(h) (Homo sapiens, UniProt P14416); experiment: biochemical; assay type: binding; settings: 1.0E−05 M; read-out: % Inhibition of Control Specific Binding
# T14 construct: expressed in transfected cells; host or cells: CHO cells
# [19] = target: T15, MAO-A(h) (Homo sapiens, UniProt P21397); experiment: MAO-A(h) enzyme assay; assay type: biochemical; settings: 1.0E−05 M
# T15 construct: human placenta; from tissue; host or cells: human placenta
# [20] = target: T16, AT1(h) (Homo sapiens, UniProt P30556); experiment: AT1(h) binding assay; settings: read-out: % Inhibition of Control Specific Binding
# T16 construct: expressed in transfected cells; host or cells: CHO cells
# [21] = target: T17, ETA(h) (Homo sapiens, UniProt P25101); experiment: ETA(h) binding assay; settings: 1.0E−05 M; read-out: % Inhibition of Control Specific Binding
# T17 construct: expressed in transfected cells; host or cells: CHO cells
# [22] = test system: PCP; experiment: PCP binding assay; set-up: species or system rat; settings: 1.0E−05 M
# [23] = target: T18, V2(h) (Homo sapiens, UniProt P30518); experiment: V2(h) binding assay; settings: 1.0E−05 M; read-out: % Inhibition of Control Specific Binding
# T18 construct: expressed in transfected cells; host or cells: CHO cells
# [24] = target: T19, GABA transaminase (Rattus norvegicus, UniProt P50554); experiment: GABA transaminase enzyme assay; assay type: biochemical; settings: 1.0E−05 M
# T19 construct: rat brain; from tissue; host or cells: rat brain
# [25] = test system: Catechol-O-methyl transferase; experiment: Catechol-O-methyl transferase enzyme assay; assay type: biochemical, porcine; settings: 1.0E−05 M
# [26] = target: Ca^2+ channel (L, diltiazem site) (benzothiazepines) (Rattus norvegicus, UniProt P22002); experiment: Ca^2+ channel (L, diltiazem site) binding assay; settings: read-out: % Inhibition of Control Specific Binding
# [27] = target: Ca^2+ channel (L, DHP site) (Rattus norvegicus, UniProt P22002); experiment: Ca^2+ channel (L, DHP site) binding assay; settings: read-out: % Inhibition of Control Specific Binding
# [28] = test system: BZD (central); experiment: BZD (central) binding assay; set-up: species or system rat; settings: 1.0E−05 M
# [29] = target: T20, CB2(h) (Homo sapiens, UniProt P34972); experiment: CB2(h) binding assay; settings: 1.0E−05 M; read-out: % Inhibition of Control Specific Binding
# T20 construct: expressed in transfected cells; host or cells: HEK-293 cells
# [30] = target: T21, NK3(h) (Homo sapiens, UniProt P29371); experiment: NK3(h) binding assay; settings: read-out: % Inhibition of Control Specific Binding
# T21 construct: expressed in transfected cells; host or cells: CHO cells
# [31] = test system: Cl-channel; experiment: Cl-channel binding assay; set-up: species or system rat; settings: 1.0E−05 M
# [32] = test system: AMPA; experiment: AMPA binding assay; set-up: species or system rat; settings: 1.0E−05 M
# [33] = target: T22, AT2(h) (Homo sapiens, UniProt P50052); experiment: AT2(h) binding assay; settings: read-out: % Inhibition of Control Specific Binding
# T22 construct: expressed in transfected cells; host or cells: Hela cells
# [34] = target: T23, V1a(h) (Homo sapiens, UniProt P37288); experiment: V1a(h) binding assay; settings: 1.0E−05 M; read-out: % Inhibition of Control Specific Binding
# T23 construct: expressed in transfected cells; host or cells: CHO cells
# [35] = target: T24, Acetylcholinesterase(h) (Homo sapiens, UniProt P22303); experiment: Acetylcholinesterase(h) enzyme assay; assay type: biochemical; settings: 1.0E−05 M
# T24 construct: host or cells: HEK-293 cells
# [36] = target: T25, B2(h) (Homo sapiens, UniProt P30411); experiment: B2(h) binding assay; settings: 1.0E−05 M; read-out: % Inhibition of Control Specific Binding
# T25 construct: expressed in transfected cells; host or cells: CHO cells
# [37] = target: D4.4(h) (Homo sapiens, UniProt P21917); experiment: biochemical; settings: 1.0E−05 M; read-out: % Inhibition of Control Specific Binding
# Chain of Ca^2+ channel (L, diltiazem site) (benzothiazepines) (P22002 whole entry): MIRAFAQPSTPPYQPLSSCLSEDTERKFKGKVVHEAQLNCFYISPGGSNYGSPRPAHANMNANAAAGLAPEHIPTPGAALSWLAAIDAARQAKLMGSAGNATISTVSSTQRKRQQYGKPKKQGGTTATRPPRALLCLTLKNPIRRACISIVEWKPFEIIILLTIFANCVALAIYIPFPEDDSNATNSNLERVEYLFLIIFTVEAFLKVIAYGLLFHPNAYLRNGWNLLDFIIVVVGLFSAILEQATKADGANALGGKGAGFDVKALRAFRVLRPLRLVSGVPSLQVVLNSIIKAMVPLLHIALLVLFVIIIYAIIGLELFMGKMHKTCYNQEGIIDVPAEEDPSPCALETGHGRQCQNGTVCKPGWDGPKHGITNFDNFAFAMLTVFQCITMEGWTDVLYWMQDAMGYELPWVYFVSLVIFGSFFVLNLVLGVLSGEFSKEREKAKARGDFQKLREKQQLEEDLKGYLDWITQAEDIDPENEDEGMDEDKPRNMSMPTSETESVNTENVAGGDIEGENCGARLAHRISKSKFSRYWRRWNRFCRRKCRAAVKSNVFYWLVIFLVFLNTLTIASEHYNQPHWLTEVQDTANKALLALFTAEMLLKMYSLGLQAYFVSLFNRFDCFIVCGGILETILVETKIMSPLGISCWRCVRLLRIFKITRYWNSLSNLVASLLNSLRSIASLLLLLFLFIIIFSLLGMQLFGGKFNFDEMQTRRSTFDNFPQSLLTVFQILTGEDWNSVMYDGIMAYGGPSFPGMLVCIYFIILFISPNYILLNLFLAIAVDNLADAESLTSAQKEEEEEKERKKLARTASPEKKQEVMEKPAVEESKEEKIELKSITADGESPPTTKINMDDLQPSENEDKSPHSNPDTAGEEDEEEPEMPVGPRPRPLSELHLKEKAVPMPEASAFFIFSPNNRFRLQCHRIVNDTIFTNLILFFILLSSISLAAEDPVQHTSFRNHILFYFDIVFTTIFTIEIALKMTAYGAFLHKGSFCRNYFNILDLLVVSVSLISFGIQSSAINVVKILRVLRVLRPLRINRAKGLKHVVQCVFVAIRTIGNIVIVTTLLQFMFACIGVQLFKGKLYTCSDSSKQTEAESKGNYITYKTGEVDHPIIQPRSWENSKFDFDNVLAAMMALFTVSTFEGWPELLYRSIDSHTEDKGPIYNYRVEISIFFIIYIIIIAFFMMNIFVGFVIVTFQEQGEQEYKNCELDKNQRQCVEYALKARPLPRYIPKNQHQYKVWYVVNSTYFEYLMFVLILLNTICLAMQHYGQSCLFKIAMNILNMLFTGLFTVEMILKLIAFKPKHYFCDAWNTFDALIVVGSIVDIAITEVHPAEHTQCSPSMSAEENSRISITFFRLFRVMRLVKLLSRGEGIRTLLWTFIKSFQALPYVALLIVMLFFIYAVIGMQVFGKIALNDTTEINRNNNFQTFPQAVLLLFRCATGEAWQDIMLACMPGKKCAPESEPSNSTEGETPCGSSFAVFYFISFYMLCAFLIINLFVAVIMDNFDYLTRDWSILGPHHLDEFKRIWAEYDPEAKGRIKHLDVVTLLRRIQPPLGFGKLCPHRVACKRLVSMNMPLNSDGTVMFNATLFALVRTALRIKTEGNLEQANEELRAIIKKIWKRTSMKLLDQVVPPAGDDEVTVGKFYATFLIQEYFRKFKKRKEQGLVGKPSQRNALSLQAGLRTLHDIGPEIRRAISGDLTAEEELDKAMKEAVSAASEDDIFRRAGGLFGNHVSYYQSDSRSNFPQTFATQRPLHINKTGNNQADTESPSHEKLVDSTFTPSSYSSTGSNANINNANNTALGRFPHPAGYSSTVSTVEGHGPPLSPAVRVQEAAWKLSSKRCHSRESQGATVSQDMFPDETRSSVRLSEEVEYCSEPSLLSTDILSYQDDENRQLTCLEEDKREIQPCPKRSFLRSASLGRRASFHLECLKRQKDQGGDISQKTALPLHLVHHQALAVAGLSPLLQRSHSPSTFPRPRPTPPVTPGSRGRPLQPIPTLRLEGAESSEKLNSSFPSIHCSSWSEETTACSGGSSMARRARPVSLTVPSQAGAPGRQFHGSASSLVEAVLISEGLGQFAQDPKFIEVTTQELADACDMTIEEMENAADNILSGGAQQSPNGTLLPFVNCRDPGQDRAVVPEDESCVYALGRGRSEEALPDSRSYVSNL
# Chain of Ca^2+ channel (L, DHP site) (P22002 whole entry): as above
# T13 sequence (Q09429 whole entry): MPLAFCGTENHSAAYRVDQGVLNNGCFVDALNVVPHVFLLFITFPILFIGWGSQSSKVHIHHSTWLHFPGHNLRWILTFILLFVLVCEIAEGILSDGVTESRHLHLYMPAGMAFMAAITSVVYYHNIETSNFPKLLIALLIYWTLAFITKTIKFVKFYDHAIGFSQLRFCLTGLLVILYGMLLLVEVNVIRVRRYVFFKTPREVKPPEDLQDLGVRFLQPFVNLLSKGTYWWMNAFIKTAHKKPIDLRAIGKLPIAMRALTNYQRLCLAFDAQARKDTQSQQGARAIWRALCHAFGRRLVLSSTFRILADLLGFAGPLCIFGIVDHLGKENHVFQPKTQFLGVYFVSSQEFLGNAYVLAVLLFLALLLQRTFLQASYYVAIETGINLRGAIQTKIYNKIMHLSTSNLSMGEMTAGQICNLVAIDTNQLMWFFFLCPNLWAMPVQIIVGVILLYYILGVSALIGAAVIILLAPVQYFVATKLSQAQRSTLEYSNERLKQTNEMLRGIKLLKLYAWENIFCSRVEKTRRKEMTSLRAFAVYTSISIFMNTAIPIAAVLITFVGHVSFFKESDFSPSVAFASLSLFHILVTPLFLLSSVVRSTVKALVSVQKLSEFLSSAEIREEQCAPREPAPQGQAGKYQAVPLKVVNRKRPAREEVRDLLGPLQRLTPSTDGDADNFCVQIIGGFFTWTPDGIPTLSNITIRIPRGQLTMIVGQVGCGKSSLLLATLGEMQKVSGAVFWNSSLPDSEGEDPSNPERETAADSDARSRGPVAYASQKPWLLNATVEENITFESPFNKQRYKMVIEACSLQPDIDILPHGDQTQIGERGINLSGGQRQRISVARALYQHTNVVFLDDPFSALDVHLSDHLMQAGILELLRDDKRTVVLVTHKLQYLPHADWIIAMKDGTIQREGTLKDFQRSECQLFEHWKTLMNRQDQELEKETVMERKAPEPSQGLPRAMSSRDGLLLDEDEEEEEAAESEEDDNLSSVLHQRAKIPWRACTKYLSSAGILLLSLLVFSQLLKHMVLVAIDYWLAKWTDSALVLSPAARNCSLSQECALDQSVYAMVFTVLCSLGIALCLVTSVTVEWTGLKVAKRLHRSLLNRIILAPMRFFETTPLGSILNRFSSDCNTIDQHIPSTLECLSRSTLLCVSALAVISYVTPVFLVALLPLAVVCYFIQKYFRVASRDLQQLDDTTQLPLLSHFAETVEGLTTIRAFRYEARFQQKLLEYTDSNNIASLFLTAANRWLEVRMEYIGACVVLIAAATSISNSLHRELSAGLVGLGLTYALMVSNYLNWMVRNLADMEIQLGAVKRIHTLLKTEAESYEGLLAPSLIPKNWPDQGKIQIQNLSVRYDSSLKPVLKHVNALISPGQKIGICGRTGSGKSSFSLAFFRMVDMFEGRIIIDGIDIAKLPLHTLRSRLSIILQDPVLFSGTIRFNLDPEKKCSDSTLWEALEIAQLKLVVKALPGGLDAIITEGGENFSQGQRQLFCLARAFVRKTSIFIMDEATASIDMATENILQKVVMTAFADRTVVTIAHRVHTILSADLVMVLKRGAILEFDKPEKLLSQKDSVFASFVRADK
# T13 sequence (P70673 whole entry partner): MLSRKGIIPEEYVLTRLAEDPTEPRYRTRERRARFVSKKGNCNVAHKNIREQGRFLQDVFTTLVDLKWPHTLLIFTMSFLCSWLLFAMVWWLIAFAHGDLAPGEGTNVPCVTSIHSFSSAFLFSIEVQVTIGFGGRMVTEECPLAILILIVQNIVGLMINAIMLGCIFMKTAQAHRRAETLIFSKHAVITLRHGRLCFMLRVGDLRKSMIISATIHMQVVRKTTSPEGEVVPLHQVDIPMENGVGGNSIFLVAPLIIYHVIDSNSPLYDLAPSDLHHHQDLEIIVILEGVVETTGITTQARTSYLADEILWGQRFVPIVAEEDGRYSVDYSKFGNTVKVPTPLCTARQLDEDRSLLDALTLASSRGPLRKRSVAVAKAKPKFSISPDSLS
# T1 sequence (Q9Y271 whole entry): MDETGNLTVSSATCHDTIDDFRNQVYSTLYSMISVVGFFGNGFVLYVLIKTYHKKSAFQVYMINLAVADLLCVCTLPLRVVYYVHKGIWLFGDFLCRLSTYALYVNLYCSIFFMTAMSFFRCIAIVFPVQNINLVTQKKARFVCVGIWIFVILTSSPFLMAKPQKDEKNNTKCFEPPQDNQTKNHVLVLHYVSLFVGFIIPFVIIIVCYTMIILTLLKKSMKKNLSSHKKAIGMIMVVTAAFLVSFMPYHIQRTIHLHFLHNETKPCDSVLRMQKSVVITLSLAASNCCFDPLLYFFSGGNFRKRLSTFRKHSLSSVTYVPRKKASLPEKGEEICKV
# T16 sequence (P30556 whole entry): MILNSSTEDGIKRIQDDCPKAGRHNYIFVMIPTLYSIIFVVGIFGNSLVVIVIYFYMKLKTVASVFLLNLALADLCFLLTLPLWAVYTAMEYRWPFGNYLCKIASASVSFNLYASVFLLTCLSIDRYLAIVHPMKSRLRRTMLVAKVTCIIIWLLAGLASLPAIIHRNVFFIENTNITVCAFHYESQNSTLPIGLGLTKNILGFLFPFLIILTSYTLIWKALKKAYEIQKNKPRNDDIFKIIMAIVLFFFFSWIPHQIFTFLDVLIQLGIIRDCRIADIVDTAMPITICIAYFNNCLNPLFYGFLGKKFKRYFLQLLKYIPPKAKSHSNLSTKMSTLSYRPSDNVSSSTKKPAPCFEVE
smiles,measurement,setting,value
"N#Cc1ccc2c(ccn2CCCCCB(O)O)c1 [Example 20, 5-(5-cyano-1H-indol-1-yl)pentylboronic acid]",inhibition at 10 µM,[1],12%
same,% Inhibition of Control Specific Binding,[2],16%
same,% Stimulation Relative to Control,[3],0%
same,inhibition at 10 µM,[4],-23%
same,inhibition at 10 µM,[5],0%
same,% Inhibition of Control Specific Binding,[6],13%
same,inhibition at 10 µM,[7],6%
same,% Inhibition of Control Specific Binding,[8],14%
same,inhibition at 10 µM,[9],40%
same,% Inhibition of Control Specific Binding,[10],79%
same,% Inhibition of Control Values,[11],1%
same,% Inhibition of Control Values,[12],8%
same,% Inhibition of Control Specific Binding,[13],21%
same,inhibition at 10 µM,[14],7%
same,inhibition at 10 µM,[15],4%
same,inhibition at 10 µM,[16],2%
same,inhibition at 10 µM,[17],25%
same,inhibition at 10 µM,[18],23%
same,% Inhibition of Control Values,[19],6%
same,inhibition at 10 µM,[20],-3%
same,inhibition at 10 µM,[21],-25%
same,% Inhibition of Control Specific Binding,[22],5%
same,inhibition at 10 µM,[23],5%
same,% Inhibition of Control Values,[24],−2%
same,% Inhibition of Control Values,[25],−5%
same,inhibition at 10 µM,[26],-1%
same,inhibition at 10 µM,[27],-10%
same,% Inhibition of Control Specific Binding,[28],18%
same,inhibition at 10 µM,[29],-12%
same,inhibition at 10 µM,[30],3%
same,% Inhibition of Control Specific Binding,[31],26%
same,% Inhibition of Control Specific Binding,[32],−3%
same,inhibition at 10 µM,[33],3%
same,inhibition at 10 µM,[34],24%
same,% Inhibition of Control Values,[35],11%
same,inhibition at 10 µM,[36],18%
same,inhibition at 10 µM,[37],1%
